Results: the supplement of paper PMC10307832

What was measured:
Assay in all cases: relative viability (nuclei count vs DMSO), 5 days (fraction); higher = more cells survive
AZD5582 + Linsitinib = compound: C[C@@H](C(=O)N[C@@H](C1CCCCC1)C(=O)N2CCC[C@H]2C(=O)N[C@@H]3[C@@H](CC4=CC=CC=C34)OCC#CC#CCO[C@@H]5CC6=CC=CC=C6[C@@H]5NC(=O)[C@@H]7CCCN7C(=O)[C@H](C8CCCCC8)NC(=O)[C@H](C)NC)NC [AZD5582] + C[C@]1(O)C[C@@H](c2nc(-c3ccc4ccc(-c5ccccc5)nc4c3)c3c(N)nccn32)C1 [Linsitinib] (partner 1 µM)
Method in brief: (§1)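 Relative viability divides the nuclei count in treated wells by that in vehicle wells. Lung cancer cell lines were seeded in 1536-well plates, dosed by pin tool the next day, and fixed and stained after 5 days in one step with final 0.05% Triton X-100, 1% formaldehyde and 1 ug/ml Hoechst. Dosing was a single drug or a fixed anchor-drug dose plus five library-drug doses (not always all listed) in √10 steps, and values are medians of duplicate plates imaged at 4×.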

[1] = compound: Cn1nnc2c(C(N)=O)ncn2c1=O [Temozolomide] + C[C@@H](Oc1cc(-c2cnn(C3CCNCC3)c2)cnc1N)c1c(Cl)ccc(F)c1Cl [Crizotinib] (partner 1 µM)
Method in brief: as §1

[2] = compound: Cn1nnc2c(C(N)=O)ncn2c1=O [Temozolomide] + Nc1nc2[nH]cc(CCc3ccc(C(=O)N[C@@H](CCC(=O)O)C(=O)O)cc3)c2c(=O)[nH]1 [Pemetrexed] (partner 0.2 µM)
Method in brief: as §1

Temozolomide + Olaparib = compound: Cn1nnc2c(C(N)=O)ncn2c1=O [Temozolomide] + O=C(c1cc(Cc2n[nH]c(=O)c3ccccc23)ccc1F)N1CCN(C(=O)C2CC2)CC1 [Olaparib] (partner 8 µM)
Method in brief: as §1

| Cell Line | relative viability (AZD5582 + Linsitinib; first compound 0.001581 µM) | relative viability (AZD5582 + Linsitinib; first compound 0.005 µM) | relative viability (AZD5582 + Linsitinib; first compound 0.01581 µM) | relative viability (AZD5582 + Linsitinib; first compound 0.05 µM) | relative viability ([1]; first compound 0.2 µM) | relative viability ([1]; first compound 0.6325 µM) | relative viability ([1]; first compound 2 µM) | relative viability ([1]; first compound 6.325 µM) | relative viability ([1]; first compound 20 µM) | relative viability ([2]; first compound 0.2 µM) | relative viability ([2]; first compound 0.6325 µM) | relative viability ([2]; first compound 2 µM) | relative viability ([2]; first compound 6.325 µM) | relative viability ([2]; first compound 20 µM) | relative viability (Temozolomide + Olaparib; first compound 0.2 µM) | relative viability (Temozolomide + Olaparib; first compound 0.6325 µM) | relative viability (Temozolomide + Olaparib; first compound 2 µM) | relative viability (Temozolomide + Olaparib; first compound 6.325 µM) | relative viability (Temozolomide + Olaparib; first compound 20 µM) |
| --- | --- | --- | --- | --- | --- | --- | --- | --- | --- | --- | --- | --- | --- | --- | --- | --- | --- | --- | --- |
| NCI-H650 | 0.649 | 0.758 | 0.431 | 0.564 | 0.679 | 0.697 | 0.607 | 0.725 | 0.669 | 0.934 | 0.902 | 0.963 | 0.96 | 0.961 | 0.387 | 0.39 | 0.358 | 0.274 | 0.202 |
| LC-2-ad | 0.916 | 0.938 | 0.911 | 0.97 | 0.455 | 0.443 | 0.51 | 0.443 | 0.437 | 0.281 | 0.296 | 0.279 | 0.291 | 0.287 | 0.671 | 0.72 | 0.696 | 0.591 | 0.468 |
| NCI-H1299 | 0.93 | 1.04 | 1.01 | 0.97 | 1.02 | 0.934 | 0.988 | 0.989 | 0.975 | – | – | – | – | – | 1 | 0.99 | 0.957 | 0.923 | 0.967 |
| NCI-H3122 | 1.02 | 1.03 | 0.967 | 0.313 | 0.291 | 0.281 | 0.324 | 0.264 | 0.235 | 0.187 | 0.205 | 0.188 | 0.196 | 0.193 | 0.631 | 0.533 | 0.654 | 0.51 | 0.334 |
| EBC-1 | 0.828 | 0.939 | 0.883 | 1.03 | 0.167 | 0.2 | 0.229 | 0.208 | 0.194 | – | – | – | – | – | 0.765 | 0.663 | 0.795 | 0.666 | 0.5 |
| NCI-H441 | 0.453 | 0.53 | 0.454 | 0.389 | 0.717 | 0.824 | 0.775 | 0.766 | 0.78 | 0.28 | 0.309 | 0.272 | 0.257 | 0.236 | 0.7 | 0.569 | 0.603 | 0.527 | 0.337 |
| LOU-NH91 | 0.964 | 0.924 | 0.997 | 1.04 | 0.557 | 0.758 | 0.75 | 0.704 | 0.532 | 0.389 | 0.366 | 0.371 | 0.395 | 0.458 | 0.8 | 0.936 | 0.913 | 0.863 | 0.547 |
| LXF-289 | 0.924 | 0.936 | 0.959 | 0.998 | 0.825 | 0.82 | 0.761 | 0.791 | 0.76 | 0.941 | 0.877 | 0.868 | 0.857 | 0.868 | 1.11 | 1.13 | 1.03 | 0.951 | 0.774 |
| HCC-827 | 0.897 | 0.968 | 0.885 | 0.948 | 0.992 | 0.932 | 0.932 | 0.902 | 0.172 | 0.176 | 0.273 | 0.249 | 0.264 | 0.16 | 0.749 | 0.645 | 0.665 | 0.432 | 0.107 |
